The test system of data set [1] is MCF10A, non-tumorigenic breast epithelial cells. More on the design: method as in PMID 30739078. Conditions: in vitro cell proliferation assay; cited from earlier work.
The test system of data set [2] is Haemonchus contortus. More on the design: method as in PMID 30739078. Conditions: cited from earlier work; for Phenotype induced in treated larvae / IC50: previous study; for IC50: purchased / isolated kavalactones, read-out: IC50 for inhibition of larval (L4) development of H. contortus.
Data set [3] has as its system Haemonchus contortus. The experiment in a line: Larval development assay (xL3 to L4) of H. contortus in vitro. The class given is cell-based. Conditions: for IC50: read-out: Inhibition of Larval Development in H. Contortus IC50 (µM) ± SEM; for Anthelmintic activity in the larval development assay (in words): dilution series commencing at 100 µM. As to the method:
The Haecon-5 strain of H. contortus was produced in experimental sheep, according to animal ethics guidelines of the University of Melbourne, Australia (permit no.1413429). The feces were collected from the infected sheep and incubated at 27 °C for 1 week, allowing first-stage larvae to emerge and develop to third-stage larvae (L3s). L3s were collected and stored at 10 °C until used in experiments; xL3s were prepared by treating L3s with 0.15% v/v sodium hypochlorite (NaClO) and incubated for 20 min at 38 °C, and subsequently washed five times with sterile physiological saline (pH 7.0). These xL3s were immediately incubated at 38 °C in sterile Luria Bertani (LB) broth supplemented with 100 IU/ml of penicillin, 100 µg/ml of streptomycin, and […] of amphotericin B (fungizone, antibiotic—antimycotic; cat. no. 15240-062; Gibco, Thermo Fisher Scientific, Waltham, MA, USA); this supplemented medium was designated as LB*.
In our previous study, larval development-inhibition results guided the fractionation of the active extract from P. methysticum, and the findings were consistent with subsequent potency assessments of the purified kavalactones. Therefore, the developmental inhibition assay for H. contortus was used to determine the activity/potency of the kavalactone analogues synthesized in the present study. In brief, all synthesized compounds as well as monepantel (Zolvix, Elanco Animal Health, Australia) and moxidectin (Cydectin, Virbac, France) (two positive controls) were individually tested for inhibition of larval development in H. contortus using an 18-point, two-fold dilution series, commencing at 100 µM. Compound solutions (in dimethyl sulfoxide [DMSO] plus LB*) were prepared and added to 96-well flat bottom plates to achieve the desired final concentrations in a final volume of 100 µl, and xL3s (as described in Section 3.2) were dispensed into individual wells at a density of 300 worms per well (in 50 µl of LB*). Matched concentrations of DMSO (0.25% in LB*) were used as negative (untreated) controls. The plates were incubated (10% v/v CO2) at 38 °C for 7 days. Larvae in each well were fixed with 50 µl of 1% iodine at 7 days, and the number of xL3s that developed to L4s in each well was counted by light microscopic examination at 20× magnification. L4s were differentiated from xL3s by their well-developed mouth and pharynx characteristics. The assay was repeated three times on different days using three replicates in each assay. The half-maximum inhibitory concentration (IC50) of each compound was determined by fitting the log10-transformed concentration to a variable slope four-parameter model using the GraphPad Prism (v. 8.3.1) software (GraphPad Software Inc., San Diego, CA, USA).

In data set [4] the test system is HepG2 human hepatoma cells. The data set is described as follows: Cytotoxicity on HepG2 cells (CellTiter-Glo cell viability assay). As to conditions: for EC50: Homo sapiens, read-out: HepG2 EC50. The class given is cell-based. As to the method:
Synthesized compounds were tested for their toxicity on HepG2 human hepatoma cells, as described previously. In brief, compounds were tested in a 10-point, two-fold dilution series, commencing at 40 µM. The cells were cultured in Dulbecco’s modified Eagle’s medium (DMEM) supplemented with 10% fetal bovine serum (FBS) and incubated at 37 °C with 5% v/v CO2. The cells were seeded into 384-well plates at a density of 1 × 10^3 per well and exposed to compounds for 48 h. The toxicity was determined by CellTiter-Glo® cell viability assay (Promega, USA), which assessed the number of viable cells based on the quantity of ATP present. Matched percentages of etoposide and DMSO were used as positive and negative (untreated) controls, respectively. The EC50 values were determined as described in Section 3.3, and the selectivity index was calculated by dividing the EC50 value for HepG2 cells by the IC50 value for H. contortus.

[5] abbreviates: Haemonchus contortus, 168 h, xL3 to L4 development, 7 days, synthesized compounds, mean ± SEM.
The mark [6] stands for this setting: HepG2, 48 h exposure, CellTiter-Glo, highest concentration 40 µM.
Where [7] appears, read: xL3 to L4 development, 7 days, synthesized compounds, mean ± SEM.

Read-outs that look alike come from different tables or passages of the source. Where only a bound is given, the exact number is not on record here.

The term IC50 denotes the concentration that gives 50% inhibition. Regarding `COC1=CC(=O)O[C@@H](CCc2ccccc2)C1` [dihydrokavain, reference compound], in data set [1], the “Toxicity on MCF10A cells” value is on record as “limited toxicity”. In the data set with Haemonchus contortus [2], the “Phenotype induced in treated larvae” value is “lethal ‘evisceration’ (Evi) phenotype” and the IC50 was 208 µM.

In general, EC50 refers to the concentration needed to bring the measured effect to its halfway point. For `COc1cc(/C=C/c2ccc(OC)nc2)oc(=O)c1` [Compound 19], in the data set with Haemonchus contortus [3] (setting [5]), the IC50 is greater than 100 µM. In addition, the “Anthelmintic activity in the larval development assay (in words)” value (from here on “Anthelmintic activity”) with Haemonchus contortus [3] is “inactive at the highest concentration tested”. Further, the EC50 in data set [4] (setting [6]) is greater than 40 µM.

As to `COc1ccc(/C=C/c2cc(OC)cc(=O)o2)cc1` [Compound 2, yangonin], the half-maximal inhibitory concentration (IC50) in the data set on Haemonchus contortus [3] (setting [5]) was 15 ± 3 µM; with Haemonchus contortus [2], 23.7 µM. Also, the “Toxicity on MCF10A cells” value in data set [1] is given as “limited toxicity”. In data set [4] (setting [6]), the 50% effective concentration (EC50) was greater than 40 µM. Moreover, the “Phenotype induced in treated larvae” value with Haemonchus contortus [2] was “lethal ‘evisceration’ (Evi) phenotype”.

Turning to `COc1cc(/C=C/c2ccc(C(F)(F)F)cc2)oc(=O)c1` [Compound 8], in the data set with Haemonchus contortus [3] (setting [5]), the IC50 is 10.3 ± 1.2 µM. For the same compound, in data set [4] (setting [6]), the EC50 was greater than 40 µM.

`COc1cccc(/C=C/c2cc(OC)cc(=O)o2)c1` [Compound 15]: the IC50 is greater than 100 µM in the data set with Haemonchus contortus [3] (setting [5]) and 61.9 ± 7.3 µM in the data set with Haemonchus contortus [3] (setting [7]). Besides, in data set [4] (setting [6]), the EC50 was greater than 40 µM.

Turning to `COC(=O)c1ccc(/C=C/c2cc(OC)cc(=O)o2)cc1` [Compound 12], in the data set on Haemonchus contortus [3] (setting [5]), the IC50 is greater than 100 µM. Further, the “Anthelmintic activity” value in the data set on Haemonchus contortus [3] was “inactive at the highest concentration tested”. The EC50 in data set [4] (setting [6]) is greater than 40 µM.

With `COc1cc(/C=C/c2ccc3c(c2)OCO3)oc(=O)c1` [Compound 16], the half-maximal inhibitory concentration (IC50) with Haemonchus contortus [3] (Haemonchus contortus, 168 h) is greater than 100 µM. In data set [4] (HepG2, 48 h), the EC50 was greater than 40 µM.

As for `C[C@](C#N)(COc1cc(C#N)ccc1C(F)(F)F)NC(=O)c1ccc(SC(F)(F)F)cc1` [Monepantel, monepantel, reference compound], the half-maximal inhibitory concentration (IC50) in the data set on Haemonchus contortus [3] (setting [5]) came out at 0.07 ± 0.01 µM.

Regarding `COc1cc(/C=C/c2ccc(OC(F)F)cc2)oc(=O)c1` [Compound 4], in the data set with Haemonchus contortus [3] (setting [5]), the half-inhibitory concentration (IC50) was 8.9 ± 0.3 µM. For the same compound, the EC50 in data set [4] (setting [6]) is greater than 40 µM.

As to `COc1cc(/C=C/c2cccc(C#N)c2)oc(=O)c1` [Compound 17], the IC50 in the data set with Haemonchus contortus [3] (setting [5]) is greater than 100 µM. Further, the EC50 in data set [4] (setting [6]) was greater than 40 µM.

As to `COc1cc(/C=C/c2ccc(Oc3ccccc3)cc2)oc(=O)c1` [Compound 5], the concentration for half-maximal inhibition (IC50) with Haemonchus contortus [3] (setting [5]) was 5.2 ± 2.2 µM. Moreover, in data set [4] (setting [6]), the concentration giving a half-maximal response (EC50) was greater than 40 µM.

As for `COc1cc(/C=C/c2ccc(C#N)cc2)oc(=O)c1` [Compound 13], the IC50 in the data set on Haemonchus contortus [3] (setting [5]) was greater than 100 µM. Also, the “Anthelmintic activity” value in the data set with Haemonchus contortus [3] is “inactive at the highest concentration tested”. Also, the EC50 in data set [4] (setting [6]) was greater than 40 µM.

On to `COc1cc(/C=C/c2ccc(N3CCOCC3)cc2)oc(=O)c1` [Compound 10], for which the IC50 in the data set with Haemonchus contortus [3] (setting [5]) worked out at 6.4 ± 0.2 µM. Further, the EC50 in data set [4] (setting [6]) is greater than 40 µM.

For `COc1cc(/C=C/c2ccccc2)oc(=O)c1` [Compound 1, desmethoxyyangonin], the IC50 with Haemonchus contortus [3] (setting [5]) amounted to 37.1 ± 3.1 µM. Besides, in data set [1], the “Toxicity on MCF10A cells” value is “limited toxicity”. Moreover, in data set [4] (setting [6]), the half-maximal effective concentration (EC50) is greater than 40 µM. The “Exposure time sufficient to induce the Evi phenotype” value with Haemonchus contortus [2] (H. contortus) is 30 h. In the data set with Haemonchus contortus [2], the “Phenotype induced in treated larvae” value was “lethal ‘evisceration’ (Evi) phenotype” and the IC50 is 31.7 µM.

Turning to `COC(=O)c1cccc(/C=C/c2cc(OC)cc(=O)o2)c1` [Compound 18], the concentration for half-maximal inhibition (IC50) in the data set with Haemonchus contortus [3] (setting [5]) is greater than 100 µM. In addition, in data set [4] (setting [6]), the EC50 was greater than 40 µM.

`CC(C)C[C@H](NC(=O)[C@H](Cc1ccccc1)NC(=O)c1cnccn1)B(O)O` [Bortezomib, reference compound]: in data set [4] (setting [6]), the 50% effective concentration (EC50) is 0.01 µM.

On to `CO/N=C1\C[C@]2(C[C@@H]3C[C@@H](C/C=C(\C)C[C@@H](C)/C=C/C=C4\CO[C@@H]5[C@H](O)C(C)=C[C@@H](C(=O)O3)[C@]45O)O2)O[C@H](/C(C)=C/C(C)C)[C@H]1C` [Moxidectin, moxidectin, reference compound], for which the IC50 in the data set on Haemonchus contortus [3] (setting [5]) came out at 0.02 µM.

For the compound `COc1cc(/C=C/c2ccc(C)cc2)oc(=O)c1` [Compound 7], the 50% inhibitory concentration (IC50) with Haemonchus contortus [3] (setting [5]) turned out to be 12.6 ± 2.1 µM. The EC50 in data set [4] (setting [6]) is greater than 40 µM.

Regarding `COc1cc(/C=C/c2ccc(OC(F)(F)F)cc2)oc(=O)c1` [Compound 3], the 50% inhibitory concentration (IC50) with Haemonchus contortus [3] (setting [5]) stood at 1.9 ± 0.1 µM. Further, in data set [4] (setting [6]), the half-maximal effective concentration (EC50) is greater than 40 µM. For the same compound, the “Selectivity index (HepG2 EC50 / H. contortus IC50)” value in data set [4] (against H. contortus) is greater than 20 fold.

`COc1cc(/C=C/c2ccc(N3CCNCC3)cc2)oc(=O)c1` [Compound 11]: the IC50 with Haemonchus contortus [3] (setting [5]) was greater than 100 µM. The “Anthelmintic activity” value in the data set on Haemonchus contortus [3] was “inactive”. The EC50 in data set [4] (setting [6]) was greater than 40 µM.

Take `COc1cc(/C=C/c2ccc(Cl)cc2)oc(=O)c1` [Compound 6]: the concentration for half-maximal inhibition (IC50) with Haemonchus contortus [3] (setting [5]) came to 12.4 ± 3.5 µM. Besides, the 50% effective concentration (EC50) in data set [4] (setting [6]) is greater than 40 µM.

For the compound `COc1cc(/C=C/c2ccc(N(C)C)cc2)oc(=O)c1` [Compound 9], the IC50 in the data set on Haemonchus contortus [3] (setting [5]) is greater than 50 µM. Further, in the data set on Haemonchus contortus [3], the “Anthelmintic activity” value is “inactive at the highest concentration tested”. Besides, the EC50 in data set [4] (setting [6]) is greater than 40 µM.

On to `COc1cc(/C=C/c2ccccc2OC)oc(=O)c1` [Compound 14], for which the half-inhibitory concentration (IC50) is 61.9 µM with Haemonchus contortus [3] (setting [5]) and greater than 100 µM in the data set on Haemonchus contortus [3] (setting [7]). Further, the concentration for a half-maximal effect (EC50) in data set [4] (setting [6]) was greater than 40 µM.

Values taken from article PMC7221733, “Synthetic Kavalactone Analogues with Increased Potency and Selective Anthelmintic Activity against Larvae of Haemonchus contortus In Vitro” (Molecules, 2020).
